# According to patent US20140328929A1, “Method of Preventing Acute Graft-Versus-Host Disease using Oral Beclomethasone Dipropionate” (Soligenix, Inc., priority 2011, published 2014):
# “Also recorded” adds a separate entry of the source.
# Experiments:
# acute GVHD = assay: Double-blind, randomized placebo-controlled phase II study of prophylactic oral BDP: efficacy and exploratory analyses; format: in vivo, human
# Text: Patients who had allogeneic hematopoietic cell transplantation with marrow or growth factor-mobilized blood cells from HLA-A, -B, -C, -DRB1, and HLA-DQB1-allele matched or single-allele or antigen mismatched related or unrelated donors after a myeloablative conditioning regimen (>800 cGy total body irradiation [TBI] and cyclophosphamide or high-dose busulfan and cyclophosphamide) were eligible for this study. Patients who had transplantation with cord blood cells and those who were enrolled in studies that involved depletion of T cells from the graft or administration of T cell-depleting antibodies before transplantation were excluded. Patients with body weight <35 kg were also excluded because lower-dose formulations of the study drug were not available. All participants gave informed consent as documents with the use of forms approved by institutional review committees at the Fred Hutchinson Cancer Research Center and Hackensack University Medical Center.
# (§1) All participants received a standard regimen of methotrexate and tacrolimus after transplantation as prophylaxis against acute GVHD.[10] Methotrexate was given at 15 mg/m^2 on day 1 after HCT and 10 mg/m^2 on days 3, 6 and 11. […] Administration of the study drug began at the start of the conditioning regimen and continued through day 75 after transplantation. Patients who were not able to ingest the study drug because of mucositis continued their participation in the study. […] Institutional standards were used for antibacterial and antifungal prophylaxis.
# The primary pre specified endpoint of the study was development of acute GVHD with severity sufficient to require systemic immunosuppressive treatment on or before day 90 after transplantation such as: a) prednisone or its equivalent at a 1 mg/kg/day, b) systemic immunosuppressive agents other than those in the GVHD prophylactic regimen in lieu of high-dose glucocorticoids, or c) substitution of one calcineurin inhibitor for the other in the GVHD prophylactic regimen in order to treat overt GVHD. The following actions were not considered as an indication of acute GVHD with severity sufficient to require systemic immunosuppressive treatment: a) administration of high-dose glucocorticoids for indications other than acute GVHD, b) substitution of one calcineurin inhibitor for another in the GVHD prophylactic regimen in order to manage toxicity, c) increase in the dose of the calcineurin inhibitor originally prescribed for GVHD prophylaxis in order to suppress overt manifestations of acute GVHD. For purposes of the primary endpoint, extracorporeal photopheresis was considered as systemic immunosuppressive treatment, but administration of psoralen and UV irradiation was not.
# In the assessment of the acute GVHD index score, parenteral nutrition was employed as a surrogate for oral caloric intake less than 40% of requirements.
# For purposes of sample size estimation, we assumed that 60% of the participants in the placebo arm would require systemic glucocorticoid treatment for acute GVHD. […] Based on historical results from our center, we estimated a frequency of grade IIa GVHD at approximately 25%. […] An interim analysis was conducted after 69 patients were enrolled, with a plan to end the trial if the probability of rejecting the null hypothesis had been less than 33%. This criterion was not met, and the remaining patients were accrued as originally planned.
# The primary endpoint was analyzed as a binomial outcome with differences evaluated by the unadjusted x^2 test with stratification according to donor type (related vs. unrelated) and pretransplant risk category (chronic myeloid leukemia in chronic phase, refractory anemia without excess blasts or other hematologic malignancy in remission vs. more advanced malignancy). Other endpoints were evaluated by x^2 test, Student's t-test, Wilcoxon rank sum test or log-rank test as appropriate, with no adjustment to the computed significance level to account for the interim analysis. […]
# [1] = Same phase II study: assessment of safety (adverse outcomes, gastrointestinal adverse events, bacteremia, mucositis); format: in vivo
# Method: as §1
# The primary endpoint was analyzed as a binomial outcome with differences evaluated by the unadjusted x^2 test with stratification according to donor type (related vs. unrelated) and pretransplant risk category (chronic myeloid leukemia in chronic phase, refractory anemia without excess blasts or other hematologic malignancy in remission vs. more advanced malignancy). Other endpoints were evaluated by x^2 test, Student's t-test, Wilcoxon rank sum test or log-rank test as appropriate, with no adjustment to the computed significance level to account for the interim analysis. Results were analyzed with data available as of Sep. 15, 2010.
# These included the hazards of cytomegalovirus and invasive yeast or mold infection, cGVHD, death without recurrent malignancy, recurrent malignancy, death from any cause, and the composite of death or recurrent malignancy. […] Other gastrointestinal adverse events occurred infrequently.
# GVHD, bacteremia and recurrent malignancy were the most frequent serious adverse events. Other serious adverse events occurred at frequencies <5%. […] For this reason, we evaluated the distribution of all bacteremia episodes. Because participants took the study drug until day 75 after transplantation and then stopped, we included all bacteremia episodes that occurred before day 103. […] We observed a single episode of Enterococcus bacteremia among the 46 participants in the placebo arm, on day 15 after transplantation.
# Time-to-first event analyses were used to evaluate the risks of bacteremia in the BDP arm compared to the placebo arm. Follow-up was censored at 103 days after HCT, 28 days after the end of study drug administration. The hazard ratios were 1.38 (95% CI 0.8-2.5) for any bacteremia, 1.32 (95% CI 0.7-2.5) for gram-positive bacteremia, and 5.24 (95% CI 0.7-41) for Enterococcus bacteremia.
# For this reason, we evaluated the severity of mucositis in the two arms for the 118 patients who had evaluations by an oral medicine specialist on at least one occasion after transplantation at the FHCRC.
# adrenal function = assay: Cosyntropin stimulation test at approximately day 75 after transplantation; format: in vivo, human; conditions: 26 of the 30 participants tested in the BDP arm; no systemic glucocorticoid treatment; about day 75
# gastrointestinal GVHD = conditions: oral BDP plus 10 day course of prednisone (1 mg/kg/day) with 7 day taper; grade II gastrointestinal GVHD; cited from earlier work
# [2] = cited from earlier work
# [3] = BDP >90% adherent group, N = 50
# [4] = BDP patients with ≧90% adherence
smiles,measurement,setting,value
"CCC(=O)OCC(=O)[C@@]1(OC(=O)CC)[C@@H](C)C[C@H]2[C@@H]3CCC4=CC(=O)C=C[C@]4(C)[C@@]3(Cl)[C@@H](O)C[C@@]21C [BDP, beclomethasone 17,21-dipropionate]",Systemic treatment for GVHD among BDP patients with ≧90% adherence,"acute GVHD; 50 BDP patients, 27 treated",54%
same,Cumulative Prednisone Dose through Day 75 Post HCT,"acute GVHD; BDP 50-90% adherent, number 34",2105 mg
same,Mean of the Average Dose (prednisone) through Day 75 Post HCT,"acute GVHD; BDP 50-90% adherent, number 34",28.7 mg
same,Cumulative Prednisone Dose through Day 75 Post HCT,"acute GVHD; BDP <50% adherent, number 8",2048 mg
same,Mean of the Average Dose (prednisone) through Day 75 Post HCT,"acute GVHD; BDP <50% adherent, number 8",29.2 mg
same,"Overall Mortality, N (%)",acute GVHD; [3],7 (14) N (%)
same,"Relapse, N (%)",acute GVHD; [3],9 (18) N (%)
same,Cumulative Prednisone Dose through Day 75 Post HCT,"acute GVHD; BDP >90% adherent, number 50",1145 mg
same,Mean of the Average Dose (prednisone) through Day 75 Post HCT,"acute GVHD; BDP >90% adherent, number 50",15.4 mg
same,"BDP >90% adherent group requiring systemic treatment for acute GVHD before day 90, N (%)","acute GVHD; BDP N = 50, >90% adherent",27 (54) N (%)
same,"Systemic treatment for acute GVHD before day 90, N (%) PRIMARY ENDPOINT","acute GVHD; BDP N = 92, Table 5",62 (67) N (%)
same,"Gastrointestinal GVHD proven by biopsy, events",acute GVHD; BDP arm,44
same,"Secondary systemic treatment for GVHD, events",acute GVHD; BDP arm,8
same,"Topical treatment for acute GVHD, events",acute GVHD; BDP arm,58
same,Average weekly gut morbidity score (SD),acute GVHD; BDP arm N = 92,0.63 (0.36)
same,Average weekly gut morbidity score after day 21 (SD),acute GVHD; BDP arm N = 92,0.47 (0.48)
same,Average weekly liver morbidity score (SD),acute GVHD; BDP arm N = 92,0.11 (0.31)
same,"Average weekly overall morbidity score, mean (SD)",acute GVHD; BDP arm N = 92,1.22 (0.53)
same,Average weekly skin morbidity score (SD),acute GVHD; BDP arm N = 92,0.30 (0.42)
same,"Peak GVHD grade 0-1, N (%)",acute GVHD; BDP arm N = 92,31 (34) N (%)
same,"Peak GVHD grade IIa, N (%)",acute GVHD; BDP arm N = 92,41 (45) N (%)
same,"Peak GVHD grade IIb-IV, N (%)",acute GVHD; BDP arm N = 92,20 (22) N (%)
same,"Peak overall morbidity score, mean (SD)",acute GVHD; BDP arm N = 92,2.54 (0.62)
same,"Systemic treatment for acute GVHD before day 90, N (%)","acute GVHD; BDP arm N = 92, Table 2",60 (65) N (%)
same,"Cumulative mg/kg prednisone-equivalent systemic glucocorticoid dose to day 75, mean (SD)","acute GVHD; BDP arm N = 92, for GVHD, not including steroid treatment for other indications",33.1 (23.3) mg/kg
same,"Systemic treatment for acute GVHD, HR","acute GVHD; BDP arm compared to placebo arm, 95% CI 0.6-1.4",0.92
same,Participants given systemic glucocorticoid treatment for GVHD,"acute GVHD; BDP arm, 60 participants",65%
same,Grades IIb-III GVHD,"acute GVHD; BDP arm, peak OMI scores >20, seven of 36 participants",19%
same,Grades IIb-III GVHD,"acute GVHD; BDP arm, peak OMI scores ≦20, nine of 43 participants",21%
same,Cumulative incidence of grades III-IV GVHD,"acute GVHD; BDP arm, 95% CI 1%-12%",7%
same,"Systemic treatment for acute GVHD, events","acute GVHD; BDP arm, withdrawal or recurrent malignancy as competing event",61
same,Incidence of relapse,acute GVHD; [4],18%
same,Overall mortality,acute GVHD; [4],14%
same,"Secondary systemic treatment for GVHD, HR","acute GVHD; BDP vs placebo, 95% CI 0.2-1.9",0.65
same,"Topical treatment for acute GVHD, HR","acute GVHD; BDP vs placebo, 95% CI 0.6-1.4",0.89
same,"Gastrointestinal GVHD proven by biopsy, HR","acute GVHD; BDP vs placebo, 95% CI 0.7-2.2",1.26
same,Cumulative incidence of grades IIb-IV GVHD,"acute GVHD; day 100 after transplantation, BDP arm, 95% CI 13%-30%",22%
same,Cumulative incidence of grades IIa-IV GVHD,"acute GVHD; day 100 after transplantation, BDP arm, 95% CI 57%-76%",66%
same,"Death from any cause, events",[1]; BDP arm,22
same,"Death or recurrent malignancy, events",[1]; BDP arm,29
same,"Death without recurrent malignancy, events",[1]; BDP arm,10
same,"Death without recurrent malignancy, HR","[1]; BDP vs placebo, 95% CI 0.4-5.8",1.60
same,"Death or recurrent malignancy, HR","[1]; BDP vs placebo, 95% CI 0.5-1.7",0.93
same,"Death from any cause, HR","[1]; BDP vs placebo, 95% CI 0.5-2.0",0.95
same,Participants with Enterococcus bacteremia episodes among those who received total body irradiation,"[1]; BDP, of the 61 participants (both arms) with total body irradiation",9
same,Participants with Enterococcus bacteremia episodes among those who received busulfan and cyclophosphamide,"[1]; BDP, of the 77 participants (both arms)",1
same,"CMV viremia or disease, HR","[1]; human, in vivo",0.93
same,"CMV viremia or disease, events","[1]; human, in vivo",23
same,"Chronic GVHD requiring systemic treatment, HR","[1]; human, in vivo",1.05
same,"Chronic GVHD requiring systemic treatment, events","[1]; human, in vivo",31
same,"Colitis, N (%)","[1]; human, in vivo",0 (0) N (%)
same,"Enteritis, N (%)","[1]; human, in vivo",0 (0) N (%)
same,Episodes of Enterococcus bacteremia,"[1]; human, in vivo",12 episodes
same,Episodes of Enterococcus bacteremia after day 57,"[1]; human, in vivo",3 episodes
same,Episodes of Enterococcus bacteremia before day 17 after transplantation,"[1]; human, in vivo",9 episodes
same,Episodes of gram-negative bacteremia,"[1]; human, in vivo",15 episodes
same,"Esophagitis, N (%)","[1]; human, in vivo",8 (9) N (%)
same,"GI hemorrhage, N (%)","[1]; human, in vivo",2 (2) N (%)
same,"GI infection (any), N (%)","[1]; human, in vivo",22 (24) N (%)
same,"GI infection: C. difficile, N (%)","[1]; human, in vivo",16 (17) N (%)
same,"GI infection: CMV enteritis, N (%)","[1]; human, in vivo",2 (2) N (%)
same,"GI infection: Other viral infection, N (%)","[1]; human, in vivo",2 (2) N (%)
same,"GI infection: Other, N (%)","[1]; human, in vivo",3 (3) N (%)
same,"GI infection: Yeast or mold, N (%)","[1]; human, in vivo",0 (0) N (%)
same,"GI ulceration or erosion, N (%)","[1]; human, in vivo",5 (5) N (%)
same,"Gastritis, N (%)","[1]; human, in vivo",2 (2) N (%)
same,Gastrointestinal ulceration or erosion diagnosed by endoscopy,"[1]; human, in vivo",5 participants
same,"Ileus, N (%)","[1]; human, in vivo",1 (0) N (%)
same,"Invasive yeast or mold infection, HR","[1]; human, in vivo",0.50
same,"Invasive yeast or mold infection, events","[1]; human, in vivo",1
same,Number of serious adverse events related to bacteremia,"[1]; human, in vivo",14
same,Number of serious adverse events related to mucositis,"[1]; human, in vivo",5
same,Participants diagnosed with gastrointestinal infection,"[1]; human, in vivo",24%
same,"Recurrent malignancy, HR","[1]; human, in vivo",0.77
same,"Recurrent malignancy, events","[1]; human, in vivo",19
same,"Typhlitis, N (%)","[1]; human, in vivo",1 (1) N (%)
same,"Oral infection, N (%)","[1]; human, in vivo, po",3 (3) N (%)
same,Participants with Enterococcus bacteremia,"[1]; of the 92 participants in the BDP arm, before day 103",10 participants
same,Abnormal adrenal function,adrenal function,87%
same,Efficacy for treatment of gastrointestinal GVHD in two previous randomized trials,gastrointestinal GVHD,more effective than prednisone alone; also recorded: effective
same,Protein binding,[2],protein-bound
